Values of other authors in patent publication US11643424B2, “Cardiopathy-reducing phosphodiester lipids” (Signpath Pharma, Inc., priority 2018, dated 2023).

Tested on: K+ current
Details: cited from earlier work

Structure (SMILES): CCCCc1oc2ccc(NS(C)(=O)=O)cc2c1C(=O)c1ccc(OCCCN(CCCC)CCCC)cc1 [Dronedarone]
- reduction of K+ current: 69%
